Source: the supplement of paper PMC10307832

Assays:
Assay in all cases: relative viability (nuclei count vs DMSO), 5 days (fraction); higher = more cells survive
[1] = compound: C[As](C)SC[C@H](NC(=O)CC[C@H](N)C(=O)O)C(=O)NCC(=O)O [Darinaparsin] + O=C(c1cc(Cc2n[nH]c(=O)c3ccccc23)ccc1F)N1CCN(C(=O)C2CC2)CC1 [Olaparib] (partner 8 µM)
Outline: (§1)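 The day after seeding in 1536-well plates, lung cancer cell lines were treated by pin tool with a single drug, or with a fixed anchor-drug dose together with five library-drug doses (not always all listed) in √10 steps. After 5 days, a combined fix-and-stain solution (final 0.05% Triton X-100, 1% formaldehyde, 1 ug/ml Hoechst) was added. Nuclei counted on 4× images gave relative viability as treated counts over vehicle counts, reported as the median of duplicate plates.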

[2] = compound: C1CC2=C(C1)C=C(C=C2)OC3=NC(=C4C(=N3)N(C=N4)CC5=CC=C(C=C5)C6=CC=CC=C6)N[C@@H](CC7=CC=CC=C7)CO [QS11] + NC(=O)Nc1cc(-c2cccc(F)c2)sc1C(=O)N[C@H]1CCCNC1 [AZD7762] (partner 0.2 µM)
Outline: as §1

[3] = compound: CC1=C(C=C(C=C1)NC(=O)C2=CC(=CC=C2)C(C)(C)C#N)NC3=CC4=C(C=C3)N=CN(C4=O)C [AZ628] + NC(=O)Nc1cc(-c2cccc(F)c2)sc1C(=O)N[C@H]1CCCNC1 [AZD7762] (partner 0.2 µM)
Outline: as §1

[4] = compound: C1CC2=C(C1)C=C(C=C2)OC3=NC(=C4C(=N3)N(C=N4)CC5=CC=C(C=C5)C6=CC=CC=C6)N[C@@H](CC7=CC=CC=C7)CO [QS11] + Cc1nc(Nc2ncc(C(=O)Nc3c(C)cccc3Cl)s2)cc(N2CCN(CCO)CC2)n1 [Dasatinib] (partner 0.075 µM)
Outline: as §1

Cell Line	relative viability ([1]; first compound 0.08 µM)	relative viability ([1]; first compound 0.8 µM)	relative viability ([1]; first compound 2.53 µM)	relative viability ([1]; first compound 8 µM)	relative viability ([2]; first compound 0.253 µM)	relative viability ([2]; first compound 0.8 µM)	relative viability ([2]; first compound 2.53 µM)	relative viability ([2]; first compound 8 µM)	relative viability ([3]; first compound 0.08 µM)	relative viability ([3]; first compound 0.253 µM)	relative viability ([3]; first compound 0.8 µM)	relative viability ([3]; first compound 2.53 µM)	relative viability ([3]; first compound 8 µM)	relative viability ([4]; first compound 0.08 µM)	relative viability ([4]; first compound 0.253 µM)	relative viability ([4]; first compound 0.8 µM)	relative viability ([4]; first compound 2.53 µM)	relative viability ([4]; first compound 8 µM)	relative viability ([2]; first compound 0.08 µM)
PC-3 [JPC-3]	1.42	1.15	1.16	1.26	0.767	0.736	0.792	0.832	0.929	0.754	0.808	0.83	0.727	0.992	1.05	0.954	1.13	1.08	
LXF-289	1.46	1.09	0.841	1.03	1.08	0.899	1	0.93	1.12	1.08	0.98	1.06	0.652	0.228	0.263	0.241	0.291	0.191	1.14
NCI-H1437	0.705	0.623	0.615	0.689	1.18	0.891	1.08	1.11	1.17	1.07	0.657	1.13	0.898	0.397	0.347	0.404	0.531	0.391	1.12
NCI-H838	1.07	0.778	0.734	0.941	0.87	0.844	0.905	1.03	0.957	0.884	0.915	0.95	0.922	0.271	0.312	0.357	0.27	0.276	1
NCI-H650	0.368	0.361	0.418	0.34	0.981	0.775	1.05	0.645	1.14	1.24	1.37	1.14	0.691	0.424	0.428	0.497	0.4	0.352	0.762
LK-2	0.727	0.546	0.644	0.731	0.643	0.527	0.412	0.455	0.526	0.354	0.273	0.357	0.259	0.287	0.321	0.317	0.268	0.306	0.388
H3255	0.644	0.518	0.606	0.632	0.946	0.634	1.01	0.902	0.852	0.726	0.806	1.01	0.684	0.319	0.394		0.369	0.402	0.931
PC-14	0.234	0.261	0.222	0.225	0.278	0.369	0.318	0.443	0.48	0.324	0.338	0.316	0.296	0.223	0.201	0.289	0.26	0.15	0.276
HCC-78	0.884	0.712	0.851	0.955	0.527	0.552	0.703	0.703	0.808	0.663	0.644	0.85	0.787	0.432	0.395	0.491	0.558	0.67	0.677
CAL-12T	0.875	0.617	0.822	0.698	0.572	0.546	0.596	0.551	0.806	0.622	0.561	0.656	0.501	0.4	0.365	0.466	0.368	0.334	0.736
NCI-H3122	0.796	0.589	0.572	0.791	1.05		1.15	0.961	0.953	0.782	0.578	0.626	0.361	0.876	0.82		0.969	0.538	0.998
NCI-H596	0.634	0.675	0.667	0.774	0.94	1.22	1.03	1.27	1.11	1.08	1.02	1.17	0.915	0.591	0.586	0.584	0.611	0.586	1.07
NCI-H727	0.388	0.561	0.726	0.612	0.581	0.584	0.727	0.612	0.504			0.369	0.333	0.297	0.467	0.353	0.554	0.438	0.694
NCI-H1666	0.734	0.746	0.834	0.72	0.806	0.682	0.727	0.63	0.837	0.742	0.645	0.737	0.651	0.783	0.839	0.568	0.583	0.528	0.959
NCI-H460	0.614	0.413	0.435	0.324	0.644	0.493	0.638	0.889	0.51	0.589	0.627	0.672	0.596	0.523	0.462	0.329	0.359	0.291	0.703
SW 900	0.837		0.85	0.773	0.549	0.611	0.502	0.504	0.552	0.552	0.494	0.634	0.378	0.629	0.529	0.428	0.417	0.521	0.603
